Experiment [1] deals with human CB2 receptors (Homo sapiens (Human), UniProt P34972). Nature of the experiment: cAMP assay, CHO cells expressing human CB2 receptors. It is filed as cell-based. The method, boiled down:
(§1)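 In this cellular cAMP test, IBMX (1 mM) blocked phosphodiesterase during a 30-min, 30 °C compound exposure. Accumulated cAMP was measured by a lysis-based TR-FRET kit and interpolated from a standard curve to give EC50.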

Experiment [2] addresses human CB1 receptors (Homo sapiens (Human), UniProt P21554). Nature of the experiment: cAMP assay, CHO cells expressing human CB1 receptors. It is filed as cell-based. The essentials: as §1
(In general: cAMP levels reflect the balance of adenylyl cyclase and phosphodiesterase activity.)

[3] abbreviates: CHO cells expressing human CB2, cAMP, read-out: human CB2 EC50.
[4] abbreviates: CHO cells expressing human CB1, cAMP, read-out: human CB1 EC50.

Our source for the EC50 values is patent US9290451B2 (Hoffmann-La Roche Inc., priority 2011, dated 2016).

pEC50: −log10 of the molar value. Where two headings read alike, the source gives them in different places.

One may read the pEC50 as the negative decadic logarithm of the EC50, by convention in mol/L.

Chain of human CB1 receptors (P21554 whole entry): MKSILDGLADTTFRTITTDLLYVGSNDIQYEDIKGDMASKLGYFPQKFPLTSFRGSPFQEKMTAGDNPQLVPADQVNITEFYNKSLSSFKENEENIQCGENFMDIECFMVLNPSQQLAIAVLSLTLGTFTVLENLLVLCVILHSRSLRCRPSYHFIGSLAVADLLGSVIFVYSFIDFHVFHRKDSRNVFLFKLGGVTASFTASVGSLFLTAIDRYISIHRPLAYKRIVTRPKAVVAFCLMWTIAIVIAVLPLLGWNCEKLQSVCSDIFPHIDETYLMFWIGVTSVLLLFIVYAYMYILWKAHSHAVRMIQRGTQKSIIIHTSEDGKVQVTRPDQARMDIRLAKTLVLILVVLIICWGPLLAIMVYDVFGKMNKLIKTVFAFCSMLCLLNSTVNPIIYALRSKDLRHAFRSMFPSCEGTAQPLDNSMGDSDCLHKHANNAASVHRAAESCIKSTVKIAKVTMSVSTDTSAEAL
Chain of human CB2 receptors (P34972 whole entry): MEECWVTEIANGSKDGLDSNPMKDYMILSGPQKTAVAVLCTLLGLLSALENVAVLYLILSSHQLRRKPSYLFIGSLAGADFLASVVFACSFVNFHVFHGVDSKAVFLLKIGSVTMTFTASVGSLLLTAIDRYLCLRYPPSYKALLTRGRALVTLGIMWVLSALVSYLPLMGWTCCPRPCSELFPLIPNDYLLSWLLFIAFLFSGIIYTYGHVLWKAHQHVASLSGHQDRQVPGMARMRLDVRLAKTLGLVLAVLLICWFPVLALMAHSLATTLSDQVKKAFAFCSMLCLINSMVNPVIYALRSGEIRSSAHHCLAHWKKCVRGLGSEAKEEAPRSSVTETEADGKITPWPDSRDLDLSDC

Regarding `CC(C)(C)OC(=O)N(CC1CC1)NC(=O)c1ccc(C2CC2)c(OCC2CC2)n1` [Example 363, N′-(5-Cyclopropyl-6-cyclopropylmethoxy-pyridine-2-carbonyl)-N-cyclopropylmethyl-hydrazinecarboxylic acid tert-butyl ester], the pEC50 was 7.42 in experiment [1] (setting [3]) and less than 5.00 in experiment [2] (setting [4]).

As for `CNC(=O)[C@@H](NC(=O)c1ccc(C2CC2)c(S(=O)(=O)CC(C)C)n1)C(C)(C)C` [Example 364, 5-Cyclopropyl-6-(2-methyl-propane-1-sulfonyl)-pyridine-2-carboxylic acid ((S)-2,2-dimethyl-1-methylcarbamoyl-propyl)-amide], the pEC50 was 7.89 in experiment [1] and less than 5.00 in experiment [2].

Turning to `CC(C)CS(=O)(=O)c1nc(C(=O)N[C@@H](c2cccnc2)C(F)(F)F)ccc1C1CC1` [Example 365, 5-Cyclopropyl-6-(2-methyl-propane-1-sulfonyl)-pyridine-2-carboxylic acid ((S)-2,2,2-trifluoro-1-pyridin-3-yl-ethyl)-amide], the pEC50 is 7.86 in experiment [1] (setting [3]) and less than 5.00 in experiment [2] (setting [4]).

For `CC(C)C[C@H](NC(=O)c1ccc(C2CC2)c(OCC2CC2)n1)C(=O)OC(C)(C)C` [Example 366, (S)-2-[(5-Cyclopropyl-6-cyclopropylmethoxy-pyridine-2-carbonyl)-amino]-4-methyl-pentanoic acid tert-butyl ester], the figures for the pEC50 in experiment [1] (setting [3]) and in experiment [2] (setting [4]) were 7.58 and less than 5.00, respectively.

Turning to `CCC(CC)(NC(=O)c1ccc(C2CC2)c(S(=O)(=O)CC(C)C)n1)C(=O)NC` [Example 367, 5-Cyclopropyl-6-(2-methyl-propane-1-sulfonyl)-pyridine-2-carboxylic acid (1-ethyl-1-methylcarbamoyl-propyl)-amide], the results for the pEC50 in experiment [1] (setting [3]) and in experiment [2] (setting [4]) were 6.71 and less than 5.00, respectively.

On to `CC(C)(C)NC(=O)c1ccc(C2CC2)c(OCC2CC2)n1` [Example 368, 5-Cyclopropyl-6-cyclopropylmethoxy-pyridine-2-carboxylic acid tert-butylamide], for which the values for the pEC50 in experiment [1] (setting [3]) and in experiment [2] (setting [4]) were 7.58 and less than 5.00, respectively.

`CC(C)(C)NC(=O)c1ccc(C2CC2)c(OCC2CCCO2)n1` (stereo not drawn) [Example 369, 5-Cyclopropyl-6-(tetrahydro-furan-2-ylmethoxy)-pyridine-2-carboxylic acid tert-butylamide]: the pEC50 in experiment [1] (setting [3]) is 7.92; in experiment [2] (setting [4]), less than 5.00.

For `CC1(NC(=O)c2ccc(N3CC(F)(F)C3)c(OCC3CC3)n2)COC1` [Example 370, 6-Cyclopropylmethoxy-5-(3,3-difluoro-azetidin-1-yl)-pyridine-2-carboxylic acid (3-methyl-oxetan-3-yl)-amide], the negative-log EC50 (pEC50) in experiment [1] (setting [3]) was 7.02; in experiment [2] (setting [4]), less than 5.00.

Turning to `O=C(NN1CCCOC1=O)c1ccc(C2CC2)c(OCC2CC2)n1` [Example 371, 5-Cyclopropyl-6-cyclopropylmethoxy-pyridine-2-carboxylic acid (2-oxo-[1,3]oxazinan-3-yl)-amide], the pEC50 in experiment [1] (setting [3]) is 6.36; in experiment [2] (setting [4]) it was less than 5.00.

Take `CC(C)C[C@H](NC(=O)c1ccc(C2CC2)c(OC(C)C(F)(F)F)n1)C(N)=O` (stereo partly drawn) [Example 372, 5-Cyclopropyl-6-(2,2,2-trifluoro-1-methyl-ethoxy)-pyridine-2-carboxylic acid ((S)-1-carbamoyl-3-methyl-butyl)-amide]: the pEC50 in experiment [1] is 7.27; in experiment [2] it was less than 5.00.

As for `Cc1nc(C(C)(C)NC(=O)c2ccc(C3CC3)c(OC(C)C(F)(F)F)n2)no1` (stereo not drawn) [Example 373, 5-Cyclopropyl-6-(2,2,2-trifluoro-1-methyl-ethoxy)-pyridine-2-carboxylic acid [1-methyl-1-(5-methyl-[1,2,4]oxadiazol-3-yl)-ethyl]-amide], the figures for the pEC50 in experiment [1] (setting [3]) and in experiment [2] (setting [4]) were 6.90 and less than 5.00, respectively.

With `NC(=O)[C@@H](NC(=O)c1ccc(C2CC2)c(OCC2CC2)n1)C1CC1` [Example 374, 5-Cyclopropyl-6-cyclopropylmethoxy-pyridine-2-carboxylic acid ((+)-carbamoyl-cyclopropyl-methyl)-amide], the pEC50 was 7.55 in experiment [1] (setting [3]) and less than 5.00 in experiment [2] (setting [4]).

`NC(=O)[C@H](NC(=O)c1ccc(C2CC2)c(OCC2CC2)n1)C1CC1` [Example 375, 5-Cyclopropyl-6-cyclopropylmethoxy-pyridine-2-carboxylic acid ((−)-carbamoyl-cyclopropyl-methyl)-amide]: the pEC50 was 6.45 in experiment [1] (setting [3]) and less than 5.00 in experiment [2] (setting [4]).

`NC(=O)[C@@H](NC(=O)c1ccc(N2CC(F)(F)C2)c(OCC2CC2)n1)C1CC1` [Example 376, 6-Cyclopropylmethoxy-5-(3,3-difluoro-azetidin-1-yl)-pyridine-2-carboxylic acid ((+)-carbamoyl-cyclopropyl-methyl)-amide]: the pEC50 in experiment [1] (setting [3]) is 7.23; in experiment [2] (setting [4]), less than 5.00.

Turning to `NC(=O)[C@H](NC(=O)c1ccc(N2CC(F)(F)C2)c(OCC2CC2)n1)C1CC1` [Example 377, 6-Cyclopropylmethoxy-5-(3,3-difluoro-azetidin-1-yl)-pyridine-2-carboxylic acid ((−)-carbamoyl-cyclopropyl-methyl)-amide], the pEC50 is 6.75 in experiment [1] (setting [3]) and less than 5.00 in experiment [2] (setting [4]).

In the case of `O=C(NC1(C(F)(F)F)CC1)c1ccc(N2CC(F)(F)C2)c(OCC2CC2)n1` [Example 378, 6-Cyclopropylmethoxy-5-(3,3-difluoro-azetidin-1-yl)-pyridine-2-carboxylic acid (1-trifluoromethyl-cyclopropyl)-amide], the pEC50 is 8.19 in experiment [1] (setting [3]) and less than 5.00 in experiment [2] (setting [4]).

Regarding `Cc1nc([C@](C)(NC(=O)c2ccc(C3CC3)c(S(=O)(=O)CC(C)C)n2)C2CC2)no1` [Example 381, (+)-5-Cyclopropyl-6-(2-methyl-propane-1-sulfonyl)-pyridine-2-carboxylic acid [1-cyclopropyl-1-(5-methyl-[1,2,4]oxadiazol-3-yl)-ethyl]-amide], the pEC50 in experiment [1] (setting [3]) is 7.94; in experiment [2] (setting [4]) it was 6.62.

Turning to `Cc1nc([C@@](C)(NC(=O)c2ccc(C3CC3)c(S(=O)(=O)CC(C)C)n2)C2CC2)no1` [Example 382, (−)-5-Cyclopropyl-6-(2-methyl-propane-1-sulfonyl)-pyridine-2-carboxylic acid [1-cyclopropyl-1-(5-methyl-[1,2,4]oxadiazol-3-yl)-ethyl]-amide], the pEC50 in experiment [1] (setting [3]) was 7.29; in experiment [2] (setting [4]) it was less than 5.00.
